# Earlier results as cited in patent US6686348B2, “Metalloprotease inhibitors” (Les Laboratoires Servier, priority 2000, dated 2004).
# System: ovarian cancers
# Settings: Becket et al., DDT 1996
smiles,measurement,value
CNC(=O)[C@H](Cc1ccccc1)NC(=O)[C@H](CC(C)C)[C@H](CSc1cccs1)C(=O)NO [BB94],anti-tumour activity in clinical use,active against ovarian cancers
